# Peptide text beside a SMILES is read from it. * marks the point of attachment. Cbz = O=C(OCc1ccccc1)*; CH2F = FC*
# Legend:
# Type in all cases: cell-based, mouse
# BMDMs [1] = conditions: N15m1-infected BMDMs, 24 hpi; zVAD 20 μM, Nec-1 25 μM, VX-765 20 μM
# Description: Cell death assays. Cell viability and Caspase 3/7 activity were measured using CellTiter Glo (G7571, Promega) or CaspaseGlo 3/7 (G8091, Promega) respectively, according to the manufacturer's protocol, with modification.
# Cell death assays. Cell viability and Caspase 3/7 activity were measured using CellTiter Glo (G7571, Promega) or CaspaseGlo 3/7 (G8091, Promega) respectively, according to the manufacturer's protocol, with modification. Briefly, 3.0×10^5 BMDMs/well wereplated in 24-well plates and infected at an MOI of 0.1 for 1 h in serum-free media. Media was replaced with complete media, or for addition of chemical inhibitors, viral inoculum was replaced with completed BMM media containing indicated concentration of inhibitors. Infected BMDMs were incubated for 24 h at 37° C./5% CO2. BMDMs were washed twice with 1×PBS and lysed with 100 μL Glo reagent/medium mixture (1:1). 50 μL of cell lysate was used for measuring the luminescence signal. Standard deviation and unpaired t test were performed on technical triplicates and data are representative of three independent experiments.
# BMDMs [2] = test system: BMDMs
# 2′5′-OAS/RNaseL system = conditions: N15m1-infected BMDMs, 18 hpi; zVAD 20 μM, C16 1 μM
# Description: Bioanalyzer RNA analysis. Equal amounts of total RNA purified from BMDMs were analyzed on an Agilent 2100 Bioanalyzer using RNA Nano LabChips.
compound,measurement,setting,value
COC(=O)C[C@H](NC(=O)[C@H](C)NC(=O)[C@@H](NC(=O)OCc1ccccc1)C(C)C)C(=O)CF [zVAD] (Cbz-Val-Ala-Asp(OMe)-CH2F),effect of inhibitor on virus-induced cell death,BMDMs [1],prevented virus-induced cell death
same,effect of inhibitor on caspase 3/7 activity in N15m1-infected BMDMs,BMDMs [2],inhibited
same,effect of inhibitor on degradation of host rRNA,2′5′-OAS/RNaseL system,not inhibited

# Source: US20240424083A1 (priority 2023, published 2024)
